Values quoted from earlier work as cited in patent US10059696B2, “Process for preparing 1,3-dihydroimidazole-2-thione derivatives” (BIAL-PORTELA & CA, S.A., priority 2011, dated 2018).

Conditions: able to cause central as well as peripheral effects

Structure (SMILES): NCc1c[nH]c(=S)n1[C@H]1CCc2c(F)cc(F)cc2C1 [nepicastat]
- blood brain barrier (BBB) crossing: found to cross the blood brain barrier
